Like-named read-outs stand apart in the source and are kept apart here.
How the values were obtained:
Assay type in all cases: biochemical
[1] = system: mtPTP; test: Ca2+ overload induced mitochondrial swelling in isolated mouse liver mitochondria; details: for mtPTP inhibitory activity (in words): SAR discussion of Table 2
Procedure: We next sought to evaluate the effects of TR001-13 on mtPTP activity in vitro. This was performed on isolated mitochondria. In isolated mitochondria induction of mtPTP opening leads to mitochondrial swelling due to the oncotic pressure gradient created by matrix proteins >1.5 kDa that cannot diffuse through the open pore. In in vitro experiments, where isolated mitochondria are routinely suspended in sucrose-based isosmotic solutions, the change in mitochondrial size can be measured spectrometrically by detecting the decrease in light scattering at 540 nm.
(§1) Isolation of mitochondria. C57BL6/N mouse liver mitochondria were prepared from 2 to 6 month old male mice by standard differential centrifugation. Mice fed ad libitum were euthanized with CO2 followed cervical dislocation, their livers were existed and placed in a glass beaker containing ice-cold isolation buffer (IB: 0.25 m sucrose, 10 mm Tris-HCl, 0.1 mm EGTA-Tris, pH 7.4) supplemented with fatty acid free bovine serum albumin. Livers were then cut into small pieces with scissors, rinsed with ice-cold IB, and passed through a pre-chilled Potter homogenizer with Teflon pestle. The homogenate (˜30 mL per liver) was transferred to centrifuge tubes, and unbroken cells and nuclei were removed by centrifugation at 700 g for 10 min at 4° C. The supernatant containing mitochondria and other organelles was transferred to new tubes and centrifuged at 6000 g for 10 min at 4° C. The resulting supernatant was discarded and mitochondrial pellet was carefully suspended in ice-cold IB and spun at 9500 g for 5 min at 4° C. The pellet was suspended in IB to give a protein concentration of ˜60-80 mg/mL and stored on ice. Experiments were started immediately and completed within 5 h. Protein concentration was determined by the Biuret method.
Assessment of mitochondrial swelling. Changes in mitochondrial volume of isolated mouse liver mitochondria were followed in a 96-well clear assay plate at a final volume of 0.2 mL and 0.25 mg/mL mitochondrial protein. Absorbance was read for 30 min at 540 nm on a Tecan Infinite F200 plate reader. Activity of test compounds was addressed as follows: First, 0.1 mL of sucrose assay buffer (SAB: 0.250 m sucrose, 10 mm MOPS-Tris, 0.01 mm EGTA-Tris, 1.0 mm phosphoric acid-Tris, 10 mm glutamate and 5 mm malate, pH 7.4) supplemented with twice the CaCl2 concentration required to induce mitochondrial swelling (which was determined for each preparation of mitochondria, typically 50 μm) was dispensed to the assay plate. A set of wells also contained 2.0 mm EGTA (to prevent mitochondrial swelling). The test wells contained a range of concentrations (in 1:2 serial dilutions) of the compounds of interest or 2% DMSO. Experiments were started by the addition of 0.1 mL of mitochondrial suspension (0.5 mg/mL mitochondria in SAB without respiratory substrates) to the assay plates. EC50s±SE were determined with OriginPro software by applying Hill1 function fitting algorithm on average concentration response data of n=3-41 independent preparations.

[2] = system: mtPTP; test: Ca2+ retention capacity (CRC) of isolated mouse liver mitochondria
Procedure: CRC determines the Ca^2+ threshold required for mtPTP activation; inhibitors of mtPTP are expected to increase the Ca^2+ threshold required for mtPTP induction. Extramitochondrial Ca^2+ changes are detected using the membrane-impermeant Ca^2+ indicator, Calcium Green-5N.
as §1
Assessment of Ca^2+ retention capacity (CRC). CRC of isolated mouse liver mitochondria was assessed as follows: First, 0.1 mL of SAB were dispensed to a 96-well black assay plate in the presence of 2% DMSO (control wells) or varying concentrations of test compounds, in 1:2 serial dilutions. Then, 0.1 mL of 0.5 mg/mL mitochondria in SAB devoid of respiratory substrates, but supplemented with 1 μm Calcium Green-5N were added to all wells of the assay plate. A train of 10 μm CaCl2 pulses was added at 2 min intervals, and fluorescence intensity (ex/em 485/535 nm) was read on Tecan Infinite F200 plate reader.

[3] = system: inner mitochondrial membrane potential; test: Rhodamine 123 (Rh123) uptake, mitochondrial membrane potential of isolated mouse liver mitochondria
From the text: We next evaluated the mitochondrial toxicity of the new triazole analogs by testing their ability to interfere with accumulation of the membrane-permeant cationic fluorescent dye rhodamine 123 (Rh123). The mitochondrial uptake of positively charged Rh123 is driven by the inside negative IMM potential, which is built by the respiratory chain or maintained by ATP hydrolysis if certain conditions are met. […] It should be noted, however, that toxicity for these compounds only occurs at ˜10-1000-fold higher concentrations compared to mtPTP inhibition, providing a good therapeutic window.
Assessment of mitochondrial membrane potential. Mitochondrial membrane potential—to evaluate toxicity—of isolated mouse liver mitochondria was assessed based on fluorescence quenching of the cationic fluorescent dye Rh123 upon its accumulation into mitochondrial matrix due to inside negative membrane potential. Compounds that interfere with the build-up or maintenance of IMM potential would shift Rh123 fluorescence to higher values compared to DMSO treated samples. Uncoupler FCCP was used to account for nonspecific fluorescence. First, 0.1 mL of SAB was dispensed to a 96-well black assay plate. A set of wells also contained 0.8 μm FCCP (to prevent Rh123 uptake). The test wells contained a range of concentrations (in 1:2 serial dilutions) of the compounds of interest or 2% DMSO. Then, 0.1 mL of 0.5 mg/mL mitochondria in SAB devoid of respiratory substrates but supplemented with 0.8 μm Rh123 were added to all wells of the assay plate. Fluorescence intensity (ex/em 485/535 nm) was read on a Tecan Infinite F200 plate reader for 7 min and value at 5 min was considered for analysis. EC50s±SE were determined with OriginPro software by applying Hill1 function fitting algorithm on average concentration response data of n=3 independent preparations.

[4] = Mouse Liver Mitochondria (MLM), comparative examples, read-out: Swelling EC50
[5] = Mouse Liver Mitochondria (MLM), comparative examples
[6] = Mouse Liver Mitochondria (MLM), comparative examples, read-out: Rh123 EC50
[7] = isolated mouse liver mitochondria, average ± SEM, n = 3-41, read-out: Mitochondrial Swelling EC50
[8] = compound treated CRC to DMSO treated CRC0 ratio, 1.25 μM, average ± SEM, n = 3-25
[9] = interference with Rh123 uptake to mitochondria, average ± SEM, n = 3, read-out: Rh123 uptake EC50

EC50 [1, 4] [µM]	EC50 [3, 6] [µM]	EC50 [1, 7] [µM]	EC50 [3, 9] [µM]	SMILES	CRC/CRC0 at 1.25 μM [2, 5]	mtPTP inhibitory activity (in words) [1]	CRC/CRC0 at 1.25 μM [2, 8]
8.7	> 40	–	–	CCCOc1ccc(Cl)cc1NC(=O)c1cn(-c2ccc(F)c(O)c2)nn1	1.8	–	–
0.01	14	–	–	Cc1ccc(Cl)cc1NC(=O)c1cn(-c2cc(O)cc(F)c2)nn1 [drawing 52]	13.09	–	–
–	–	> 20	> 40	Cc1ccc(Cl)cc1NC(=O)c1cn(-c2cccc(O)c2Cl)nn1 [TR007, N-(5-chloro-2-methylphenyl)-1-(2-chloro-3-hydroxyphenyl)-1H-1,2,3-triazole-4-carboxamide]	–	–	1.2 ± 0.1
–	–	10.6 ± 1.4	> 40	Cc1ccc(Cl)cc1NC(=O)c1cn(-c2cccc(O)c2C)nn1 [TR012, N-(5-chloro-2-methylphenyl)-1-(3-hydroxy-2-methylphenyl)-1H-1,2,3-triazole-4-carboxamide]	–	inactive	1.4 ± 0.1
7	> 40	–	–	C#Cc1ccc(C)c(NC(=O)c2cn(-c3ccc(F)c(O)c3)nn2)c1	1.3	–	–
0.028	14.7	–	–	Cc1ccc(I)cc1NC(=O)c1cn(-c2ccc(F)c(O)c2)nn1	8.3	–	–
0.0051	> 40	–	–	Cc1c(Cl)cccc1NC(=O)c1cn(-c2ccc(F)c(O)c2)nn1	5.4	–	–
0.581	> 40	–	–	CCOC(=O)Oc1cc(-n2cc(C(=O)Nc3cc(Cl)ccc3C)nn2)ccc1F	1.8	–	–
–	–	0.534 ± 0.047	6.2 ± 1.2	Cc1ccc(Cl)cc1NC(=O)c1cn(-c2cc(O)cc(C(F)(F)F)c2)nn1 [TR013, N-(5-chloro-2-methylphenyl)-1-(3-(trifluoromethyl)-5-hydroxyphenyl)-1H-1,2,3-triazole-4-carboxamide]	–	significantly reduced activity	2.9 ± 0.1
> 20	> 40	–	–	Cc1ccc(-n2cc(C(=O)Nc3cc(Cl)ccc3C)nn2)cc1O [drawing 67]	1.4	–	–
> 20	–	–	–	Cc1ccc(Cl)cc1NC(=O)c1cn(-c2ccc(F)c(NC(=O)C(F)(F)F)c2)nn1	1	–	–
–	–	> 20	> 40	Cc1ccc(-n2cc(C(=O)Nc3cc(Cl)ccc3C)nn2)cc1O [TR011, N-(5-chloro-2-methylphenyl)-1-(3-hydroxy-4-methylphenyl)-1H-1,2,3-triazole-4-carboxamide]	–	inactive	1.4 ± 0.1
> 20	–	–	–	Cc1ccc(Cl)cc1NC(=O)c1cn(-c2ccc(F)c(NS(=O)(=O)C(F)(F)F)c2)nn1	1	–	–
> 20	–	–	–	CC(=O)Nc1cc(-n2cc(C(=O)Nc3cc(Cl)ccc3C)nn2)ccc1F	1	–	–

Continued, compound first:

SMILES	EC50 [1, 4] [µM]	EC50 [3, 6] [µM]	EC50 [1, 7] [µM]	EC50 [3, 9] [µM]	CRC/CRC0 at 1.25 μM [2, 5]	mtPTP inhibitory activity (in words) [1]	CRC/CRC0 at 1.25 μM [2, 8]
Cc1ccc(Cl)cc1NC(=O)c1cn(-c2cc(F)cc(OC(=O)N(C)C)c2)nn1	> 20	–	–	–	1.5	–	–
C#Cc1ccc(C(C)=O)cc1NC(=O)c1cn(-c2ccc(F)c(O)c2)nn1	> 20	–	–	–	–	–	–
Cc1ccc(Cl)cc1NC(=O)c1cn(-c2ccc(F)c(N)c2)nn1	> 20	–	–	–	1	–	–
Cc1ccc(Cl)cc1NC(=O)c1cc(-c2ccc(F)c(O)c2)on1 [drawing 45]	0.002	> 100	–	–	13.5	–	–
Cc1ccc(Cl)cc1NC(=O)c1cn(-c2cc(O)ccc2F)nn1 [drawing 53]	> 20	> 40	–	–	1.4	–	–
Cc1ccc(Cl)cc1NC(=O)c1cn(-c2ccc(F)c(O)c2F)nn1 [TR005]	–	–	0.782 ± 0.114	> 40	–	decreased activity	2.6 ± 0.2
C#Cc1ccc(Cl)cc1NC(=O)c1cn(-c2ccc(F)c(O)c2)nn1	0.513	> 40	–	–	3.7	–	–
Cc1ccc(Cl)cc1NC(=O)c1cn(-c2ccc(C)c(O)c2Cl)nn1 [drawing 66]	> 20	> 40	–	–	1	–	–
Cc1ccc(Cl)cc1NC(=O)c1cn(-c2ccc(F)c(O)c2)nn1 [drawing 47]	4	10	–	–	1	–	–
Cc1ccc(Cl)cc1NC(=O)c1cn(-c2ccc(Cl)c(O)c2)nn1 [drawing 59]	0.135	> 40	–	–	3.9	–	–
Cc1ccc(Cl)cc1NC(=O)c1cn(-c2ccc(Br)c(O)c2)nn1 [TR009, 1-(4-bromo-3-hydroxyphenyl)-N-(5-chloro-2-methylphenyl)-1H-1,2,3-triazole-4-carboxamide]	–	–	0.475 ± 0.057	> 40	–	decreased activity	2.4 ± 0.2
Cc1ccc(Cl)cc1NC(=O)c1cn(-c2cc(O)cc(Cl)c2)nn1 [drawing 69]	0.028	> 40	–	–	7.3	–	–
Cc1ccc(Cl)cc1NC(=O)c1cn(-c2ccc(F)c(O)c2F)nn1 [drawing 58]	0.782	> 40	–	–	2.6	–	–
CC(=O)Oc1cc(-n2cc(C(=O)Nc3cc(Cl)ccc3C)nn2)ccc1F	0.083	> 40	–	–	4.5	–	–
Cc1ccc(Cl)cc1NC(=O)c1cn(-c2cccc(O)c2C)nn1 [drawing 68]	10.6	> 40	–	–	1.4	–	–
Cc1ccc(Cl)cc1NC(=O)c1cn(-c2ccc3[nH]c(=O)[nH]c3c2)nn1	> 20	–	–	–	1	–	–
Cc1ccc(Cl)cc1NC(=O)c1cn(-c2cccc(C(=O)O)c2)nn1	> 20	–	–	–	1	–	–
Cc1ccc(Cl)cc1NC(=O)c1cn(-c2ccc(Br)c(NS(C)(=O)=O)c2)nn1	> 20	–	–	–	1	–	–
Cc1ccc(Cl)cc1NC(=O)c1cn(-c2ccc(F)c(OC(=O)N(C)C)c2)nn1	0.153	–	–	–	3.9	–	–
